Legend:
Test in all cases: GRmax, 72 h; higher = less effect;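 further: breast cell lines in 384-well plates, nine doses across a 10^4 range, Dye Drop imaging of viable cells vs DMSO and time-zero plates, GR 0 means no net growth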
BT549 = system: BT549
EVSAT = system: EVSAT
HCC1395 = system: HCC1395
HCC1419 = system: HCC1419
HCC1806 = system: HCC1806
MDAMB175VII = system: MDAMB175VII
MDAMB330 = system: MDAMB330
MDAMB436 = system: MDAMB436
MGH312 = system: MGH312
PDX1258 = system: PDX1258
SUM159 = system: SUM159
ZR751 = system: ZR751

SMILES	GRmax, 72 h (BT549) [GR]	GRmax, 72 h (EVSAT) [GR]	GRmax, 72 h (HCC1395) [GR]	GRmax, 72 h (HCC1419) [GR]	GRmax, 72 h (HCC1806) [GR]	GRmax, 72 h (MDAMB175VII) [GR]	GRmax, 72 h (MDAMB330) [GR]	GRmax, 72 h (MDAMB436) [GR]	GRmax, 72 h (MGH312) [GR]	GRmax, 72 h (PDX1258) [GR]	GRmax, 72 h (SUM159) [GR]	GRmax, 72 h (ZR751) [GR]
COc1cc(N2CCN(C)CC2)ccc1Nc1ncc2c(n1)N(C)c1ccccc1C(=O)N2CC(F)(F)F [FMF-03-146-1]	0.839	0.994	0.64	0.805	0.942	0.887	0.866	0.89	0.866	1.2	0.898	0.939
CN1CC[C@H](c2c(O)cc(O)c3c(=O)cc(-c4ccccc4Cl)oc23)[C@H](O)C1 [Flavopiridol] (max 1 µM)	-0.44	-0.514	-0.644	-0.263	-0.568	-0.309	-0.892	-0.0264	-0.945	-0.507	-0.051	-0.353
CC(C)n1nc(-c2ccc3oc(N)nc3c2)c2c(N)ncnc21 [INK128/MLN0128] (max 3.162 µM)	0.0717	-0.31	-0.0258	-0.147	0.262	-0.886	-0.77	0.211	-0.89	-0.138	0.214	-0.0856
CC(C)NC[C@@H](C(=O)N1CCN(c2ncnc3c2[C@H](C)C[C@H]3O)CC1)c1ccc(Cl)cc1 [Ipatasertib/GDC0068] (max 10 µM)	0.496	-0.311	0.19	0.505	0.945	-0.5	-0.657	0.611	-0.936	0.399	0.591	0.608
CN(C)C(=O)c1cc2cnc(Nc3ccc(N4CCNCC4)cn3)nc2n1C1CCCC1 [LEE011/Ribociclib] (max 10 µM)	0.97	0.616	0.403	0.547	0.682	0.159	0.157	0.951	0.894	1.08	0.436	0.381
CCNC(=O)c1noc(-c2cc(C(C)C)c(O)cc2O)c1-c1ccc(CN2CCOCC2)cc1 [Luminespib/NVP-AUY922] (max 1 µM)	-0.106	-0.29	-0.152	-0.297	-0.175	-0.455	-0.344	-0.0492	-0.685	-0.29	-0.0637	0.0576
CCOc1cc2ncc(C#N)c(Nc3ccc(OCc4ccccn4)c(Cl)c3)c2cc1NC(=O)/C=C/CN(C)C [Neratinib/HKI272] (max 3.162 µM)	0.208	0.649	0.0167	-0.501	-0.0883	-0.979	-0.655	0.0162	-0.278	0.203	0.51	0.709
O=C(c1cc(Cc2n[nH]c(=O)c3ccccc23)ccc1F)N1CCN(C(=O)C2CC2)CC1 [Olaparib/AZD2281] (max 10 µM)	0.543	0.773	0.0945	0.632	0.489	0.466	0.46	0.238	0.537	0.577	0.76	0.801
CC(=O)O[C@H]1C(=O)[C@@]2(C)[C@H]([C@H](OC(=O)c3ccccc3)[C@]3(O)C[C@H](OC(=O)[C@H](O)[C@@H](NC(=O)c4ccccc4)c4ccccc4)C(C)=C1C3(C)C)[C@]1(OC(C)=O)CO[C@@H]1C[C@@H]2O [Paclitaxel] (max 1 µM)	-0.207	-0.271	-0.458	0.214	-0.211	-0.469	-0.438	-0.218	-0.508	-0.0818	-0.201	-0.0835
CS(=O)(=O)N1CCN(Cc2cc3nc(-c4cccc5[nH]ncc45)nc(N4CCOCC4)c3s2)CC1 [Pictilisib/GDC0941] (max 10 µM)	0.146	-0.565	-0.0143	-0.21	0.194	-0.903	-0.817	0.285	-0.923	0.0518	0.2	-0.0806
O=C1NC(=NCc2cccs2)SC1=Cc1ccc2ncccc2c1 [R0-3306] (max 10 µM)	-0.0782	-0.27	-0.235	0.246	-0.112	-0.0257	-0.159	0.0289	-0.249	-0.274	0.101	0.51
CNCc1ccc(-c2[nH]c3cc(F)cc4c3c2CCNC4=O)cc1 [Rucaparib] (max 10 µM)	0.91	0.908	0.234	0.855	0.68	0.56	0.423	0.222	0.569	0.564	0.799	0.835
CC1(N)CCN(c2cnc(-c3cccc(Cl)c3Cl)c(N)n2)CC1 [SHP099] (max 10 µM)	0.825	0.952	0.548	0.819	0.988	-0.0734	0.444	0.941	0.976	1.09	0.821	0.829
CN1CCN(CCOc2cc(OC3CCOCC3)c3c(Nc4c(Cl)ccc5c4OCO5)ncnc3c2)CC1 [Saracatinib/AZD0530] (max 10 µM)	0.556	0.0408	0.12	-0.115	0.221	-0.935	0.0209	0.724	-0.401	0.184	0.723	0.328
Cc1cc(C(C)Nc2ccccc2)c2nc(N3CCOCC3)cc(=O)n2c1 (stereo not given) [TGX221] (max 10 µM)	0.81	0.331	0.458	0.794	0.982	0.886	0.858	0.722	-0.158	0.997	1.02	0.239
CN(C)C/C=C/C(=O)Nc1ccc(C(=O)Nc2cccc(Nc3ncc(Cl)c(-c4c[nH]c5ccccc45)n3)c2)cc1 [THZ1] (max 1 µM)	-0.312	-0.245	-0.784	-0.386	-0.658	-0.438	-0.945	-0.0798	-0.939	-0.716	-0.122	-0.163
CN(C)C/C=C/C(=O)Nc1ccc(C(=O)N2CCC[C@@H](Nc3ncc(Cl)c(-c4c[nH]c5ccccc45)n3)C2)cc1 [THZ531] (max 1 µM)	-0.349	0.0226	-0.587	-0.294	-0.489	-0.662	-0.968	0.018	-0.947	-0.575	0.627	-0.242
CN(C)C/C=C/C(=O)Nc1ccc(C(=O)Nc2cccc(Nc3cc(-c4c[nH]c5ccccc45)ncn3)c2)cc1 [THZ-P1-2] (max 10 µM)	0.175	0.76	-0.908	-0.578	-0.467	-0.765	-0.777	-0.278	-0.983	-0.891	-0.394	0.262
Cc1nc(-c2cn3c(n2)-c2ccc(-c4cnn(C(C)(C)C(N)=O)c4)cc2OCC3)n(C(C)C)n1 [Taselisib/GDC0032] (max 10 µM)	0.095	-0.535	-0.0177	-0.405	-0.0297	-0.937	-0.924	0.243	-0.927	0.106	0.187	-0.0193
O=C1NC(=O)[C@@H](c2cn3c4c(cccc24)CCC3)[C@@H]1c1c[nH]c2ccccc12 [Tivantinib/ARQ197] (max 10 µM)	-0.265	-0.336	-0.483	0.163	-0.218	-0.296	-0.321	-0.271	-0.537	-0.209	-0.281	-0.0475
Nc1ccc(-c2ccc3ncc4ccc(=O)n(-c5cccc(C(F)(F)F)c5)c4c3c2)cn1 [Torin2] (max 1 µM)	-0.0209	-0.334	-0.142	-0.372	-0.14	-0.945	-0.84	0.123	-0.772	-0.207	0.172	-0.0631
CC[C@@H]1C(=O)N(C)c2cnc(Nc3ccc(C(=O)N[C@H]4CC[C@H](N5CCN(CC6CC6)CC5)CC4)cc3OC)nc2N1C(C)C [Volasertib/BI6727] (max 1 µM)	-0.229	-0.375	-0.296	0.0685	-0.132	-0.115	-0.261	-0.179	-0.675	-0.232	0.0326	-0.17
O=C(CCCCCCC(=O)Nc1ccccc1)NO [Vorinostat] (max 10 µM)	0.113	-0.497	-0.0589	-0.256	0.0178	-0.867	-0.872	0.033	-0.945	-0.0232	0.181	-0.0452
C=CC(=O)Nc1ccc(C(=O)Nc2[nH]nc3c2CN(C(=O)N[C@H](CN(C)C)c2ccccc2)C3(C)C)cc1 [YKL-5-124] (max 10 µM)	-0.58	-0.401	-0.267	-0.411	-0.469	-0.771	-0.765	-0.0111	-0.919	-0.587	-0.137	0.13
CN1CCN(C(=O)c2ccc3cc(CCNc4ncnc5ccc(C#N)cc45)ccc3c2)CC1 [senexin b] (max 10 µM)	0.675	0.642	0.307	0.445	0.817	0.205	0.466	0.429	0.168	0.603	0.881	0.845
